Tested on: Japanese medaka (Oryzias latipes)
Experiment: Fish short-term reproduction assay (FSTRA, OECD TG229), 21-day flow-through exposure
Conditions: for Fertility rate (%) / Mortality (%) Female / Mortality (%) Male / Number of fertilized eggs / Number of total eggs / SSC Female / SSC Male / VTG (ng/mg of liver) Female / VTG (ng/mg of liver) Male: 21 days; for GSI Female / GSI Male / HSI Female / HSI Male / Length Female / Length Male / Weight Female / Weight Male: at completion of exposure; for effect on fecundity (number of total eggs), in words: within the test concentrations
Summary of the method: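 Japanese medaka (NIES-R strain, 16 ± 2 weeks old) were exposed in flow-through tanks for 3 weeks, three males and three females per tank, four replicate tanks per group, with a dilution water control. Concentrations were spaced by a factor of 2–5. Eggs were collected daily and counted as fertilized or unfertilized.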

## CC(=O)N1CCN(c2ccc(OCC3COC(Cn4ccnc4)(c4ccc(Cl)cc4Cl)O3)cc2)CC1 (centres unmarked) [KCZ, Ketoconazole]
21-day exposure
  effect on male SSC, in words: statistical significance
  effect on fecundity (number of total eggs), in words: significant difference from the control
Hepatic VTG, 21-day exposure, measured conc.
  LOEC for decrease of VTG in females: 233 µg/L
Measured conc. 105 μg/L
  Fertility rate (%): 91%
  Mortality (%) Female: 0%
  Mortality (%) Male: 0%
  Number of fertilized eggs: 22
  Number of total eggs: 24 ± 1.1 /female/day
  SSC Female: 0 ± 0
  SSC Male: 82 ± 10
  VTG (ng/mg of liver) Female: 618 ± 81 ng/mg of liver
  VTG (ng/mg of liver) Male: 1.4 ± 0.3 ng/mg of liver
  GSI Female: 11.6%
  GSI Male: 1.08%
  HSI Female: 4.2%
  HSI Male: 1.9%
  Length Female: 33.2 mm
  Length Male: 32.7 mm
  Weight Female: 387 mg
  Weight Male: 381 mg
Measured conc. 233 μg/L
  Fertility rate (%): 89%
  Mortality (%) Female: 0%
  Mortality (%) Male: 0%
  Number of fertilized eggs: 18
  Number of total eggs: 20 ± 1.6 /female/day
  SSC Female: 0 ± 0
  SSC Male: 116 ± 25
  VTG (ng/mg of liver) Female: 542 ± 353 ng/mg of liver
  VTG (ng/mg of liver) Male: 1.3 ± 0.1 ng/mg of liver
  GSI Female: 12.0%
  GSI Male: 1.26%
  HSI Female: 8.8%
  HSI Male: 3.8%
  Length Female: 33.3 mm
  Length Male: 33.3 mm
  Weight Female: 419 mg
  Weight Male: 416 mg
Measured conc. 405 μg/L
  Fertility rate (%): 81%
  Mortality (%) Female: 8%
  Mortality (%) Male: 0%
  Number of fertilized eggs: 9.0
  Number of total eggs: 11 ± 4.4 /female/day
  SSC Female: 0 ± 0
  SSC Male: 91 ± 13
  VTG (ng/mg of liver) Female: 190 ± 123 ng/mg of liver
  VTG (ng/mg of liver) Male: 1.1 ± 0.1 ng/mg of liver
  GSI Female: 13.6%
  GSI Male: 0.98%
  HSI Female: 12.1%
  HSI Male: 3.5%
  Length Female: 32.6 mm
  Length Male: 32.4 mm
  Weight Female: 410 mg
  Weight Male: 404 mg
Measured conc. 795 μg/L
  Fertility rate (%): 76%
  Mortality (%) Female: 42%
  Mortality (%) Male: 58%
  Number of fertilized eggs: 3.5
  Number of total eggs: 4.7 ± 0.9 /female/day
  SSC Female: 0 ± 0
  SSC Male: 80 ± 22
  VTG (ng/mg of liver) Female: 56 ± 95 ng/mg of liver
  VTG (ng/mg of liver) Male: 1.1 ± 0.1 ng/mg of liver
  GSI Female: 11.0%
  GSI Male: 1.35%
  HSI Female: 11.8%
  HSI Male: 5.1%
  Length Female: 31.7 mm
  Length Male: 30.2 mm
  Weight Female: 376 mg
  Weight Male: 282 mg

## C[C@]12CCC(=O)C=C1CC[C@@H]1[C@@H]2CC[C@@]2(C)[C@H]1CC[C@]2(C)O [MT, 17α‐methyltestosterone]
21-day exposure
  effect on female hepatic VTG, in words: decreased
  effect on fecundity (number of total eggs), in words: significantly reduced
21-day exposure, measured conc.
  LOEC on female SSC (papillary process formation on anal fin): 20.1 ng/L
Measured conc. 20.1 ng/L
  Fertility rate (%): 89%
  Mortality (%) Female: 0%
  Mortality (%) Male: 0%
  Number of fertilized eggs: 23
  Number of total eggs: 25 ± 4.6 /female/day
  SSC Female: 28 ± 2.0
  SSC Male: 104 ± 12
  VTG (ng/mg of liver) Female: 1,650 ± 134 ng/mg of liver
  VTG (ng/mg of liver) Male: 1.5 ± 0.3 ng/mg of liver
  GSI Female: 13.5%
  GSI Male: 0.68%
  HSI Female: 4.8%
  HSI Male: 2.5%
  Length Female: 36.1 mm
  Length Male: 37.3 mm
  Weight Female: 592 mg
  Weight Male: 546 mg
Measured conc. 77.4 ng/L
  Fertility rate (%): 80%
  Mortality (%) Female: 0%
  Mortality (%) Male: 0%
  Number of fertilized eggs: 8.1
  Number of total eggs: 10 ± 2.9 /female/day
  SSC Female: 78 ± 7.9
  SSC Male: 106 ± 7.6
  VTG (ng/mg of liver) Female: 1,080 ± 391 ng/mg of liver
  VTG (ng/mg of liver) Male: 2.1 ± 0.3 ng/mg of liver
  GSI Female: 18.6%
  GSI Male: 0.78%
  HSI Female: 4.4%
  HSI Male: 2.4%
  Length Female: 36.7 mm
  Length Male: 38.3 mm
  Weight Female: 694 mg
  Weight Male: 603 mg
Measured conc. 300 ng/L
  Fertility rate (%): 79%
  Mortality (%) Female: 8.3%
  Mortality (%) Male: 0%
  Number of fertilized eggs: 1.4
  Number of total eggs: 1.8 ± 1.1 /female/day
  SSC Female: 85 ± 11
  SSC Male: 112 ± 7.1
  VTG (ng/mg of liver) Female: 320 ± 266 ng/mg of liver
  VTG (ng/mg of liver) Male: 1.9 ± 0.6 ng/mg of liver
  GSI Female: 12.6%
  GSI Male: 0.68%
  HSI Female: 4.2%
  HSI Male: 2.5%
  Length Female: 37.0 mm
  Length Male: 37.5 mm
  Weight Female: 654 mg
  Weight Male: 561 mg
